In patent US12630600B2 (MEDIMMUNE LIMITED, priority 2022, dated 2026):
Starred links: 1 amine or outer side, 2 acyl side, 3 side chain; linkers in the order of their positions; H or OH if unused. Non-standard residues stand in square brackets, D forms with d. Residues, ends and D or L forms follow the SMILES beside them. Groups on a side chain read outwards from the residue. No end group written: not given here. *: point of attachment. C20 diacid = O=C(O)CCCCCCCCCCCCCCCCCCC(=O)*; C18 diacid = O=C(O)CCCCCCCCCCCCCCCCC(=O)*; Dip = N[C@H](C(=O)O)C(c1ccccc1)c1ccccc1; γGlu = O=C(O)[C@H](CCC(=O)[*:2])N[*:1]; Stearoyl = CCCCCCCCCCCCCCCCCC(=O)*; αMeF = C[C@](N)(Cc1ccccc1)C(=O)O; PEG2 = NCCOCCOCCC(=O)O; AEEA = NCCOCCOCC(=O)O; Aib = CC(C)(N)C(=O)O

Assays:
neprilysin = target: T1, neprilysin (Homo sapiens, UniProt P08473); assay: Proteolytic resistance to neprilysin; assay type: in vitro ADME; settings: pH 8.3
T1 construct: purchased R&D Systems 1182-ZNC-010
T1 sequence (P08473 whole entry): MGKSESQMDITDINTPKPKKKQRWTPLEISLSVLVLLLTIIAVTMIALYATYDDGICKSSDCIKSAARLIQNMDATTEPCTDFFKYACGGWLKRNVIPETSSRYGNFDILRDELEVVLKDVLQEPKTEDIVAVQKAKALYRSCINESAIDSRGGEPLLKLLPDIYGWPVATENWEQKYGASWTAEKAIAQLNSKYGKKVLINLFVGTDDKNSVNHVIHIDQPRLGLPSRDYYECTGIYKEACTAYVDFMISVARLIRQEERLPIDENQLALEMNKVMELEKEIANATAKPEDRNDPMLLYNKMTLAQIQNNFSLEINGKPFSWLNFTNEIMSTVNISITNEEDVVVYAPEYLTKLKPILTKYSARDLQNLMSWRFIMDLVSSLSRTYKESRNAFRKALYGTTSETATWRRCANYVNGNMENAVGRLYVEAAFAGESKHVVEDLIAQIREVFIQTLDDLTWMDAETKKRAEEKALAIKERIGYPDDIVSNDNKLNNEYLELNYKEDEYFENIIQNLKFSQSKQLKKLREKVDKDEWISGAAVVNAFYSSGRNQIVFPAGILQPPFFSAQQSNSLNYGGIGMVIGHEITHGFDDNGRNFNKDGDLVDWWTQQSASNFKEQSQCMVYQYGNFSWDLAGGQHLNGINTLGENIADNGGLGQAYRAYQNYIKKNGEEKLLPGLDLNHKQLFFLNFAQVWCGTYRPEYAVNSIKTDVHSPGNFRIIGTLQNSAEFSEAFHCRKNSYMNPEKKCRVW
Experimental: 10.0 μg (˜10 units) recombinant Neprilysin (R&D Systems: 1182-ZNC-010) was reconstituted to 100 μL (100 μg/mL, ˜100 units/mL) in assay buffer (50 mM Tris, 50 mM NaCl, 50 mM NaHCO3, adjusted to pH 8.3) to give the enzyme stock solution. Peptide stock solutions were prepared to a concentration of ˜250 μM (˜1.0 mg/mL of 4 kDa peptide) in assay buffer. 100 μL (10 μg, ˜10 units) of neprilysin stock solution was added to 100 μL of peptide stock solution (1.0 mg/mL, ˜100 μg of peptide) and the mixture was co-incubated in a temperature regulated incubator at 37° C. for the duration of the experiment. 25 μL aliquots (˜12.5 μg initial peptide) of the peptide-enzyme mixture were periodically withdrawn (t=0, 30 mins, 1 h, 2 h, 4 h and 24 h) and quenched immediately by addition to an equal volume ([…]) of 10% TFA (v/v) in 1:1 water/acetonitrile to arrest proteolytic activity. The quenched aliquot centrifuged at 7800 rpm, and 30 μL of the supernatant was analyzed by analytical RP-HPLC as follows: Analytical RP-HPLC method: Agilent Polaris C8-A column (4.6×100 mm, 3 micron) eluted with a linear binary gradient of 10-90% MeCN (0.1% TFA v/v) in water (0.1% TFA v/v) over either 10 or 15 mins at 1.5 mL min^−1 at 40° C. with detection by UV absorption at 210 nm. Manual integration (AUC) allowed estimation of remaining intact peptide over the time course of the experiment.

wildtype (WT) mice = assay: Glucose change in wildtype mice; assay type: in vivo, mouse; settings: s.c.
Experimental: […] and wildtype (WT) mice at 8-14 weeks of age were singly housed on standard chow diet (Envigo, 2918) and automatic water. They acclimated for a minimum of ˜1-2 weeks, and mice were sorted into groups (n=4-8/group) based on body weight. On day of study, mice were fasted briefly for 2 hrs prior to study start. In some studies, mice were pre-treated with octreotide (BaChem, 10 mg/kg) at 30 minutes prior to peptide injection. Glucose was measured via glucometer at various timepoints including −30 min (prior to octreotide when used in studies), 0 min (before peptide dose), 30, 60, 120, 180, 240, and 360 minutes. Since these studies are acute in nature, mice were re-used for multiple studies (no more than 3) and always allowed at least a minimum wash-out period of 1 week.

[1] = target: T2, human GLP-1 receptor (hGLP-1R) (Homo sapiens, UniProt P43220); assay: cAMP production (HTRF) in CHO cells expressing human GLP-1 receptor; assay type: cell-based; settings: Table 8; % GLP-1R activity relative to GLP-1 / % GlucR activity relative to glucagon
T2 construct: expressed in transfected cells; host or cells: CHO
T2 sequence (P43220 24-463): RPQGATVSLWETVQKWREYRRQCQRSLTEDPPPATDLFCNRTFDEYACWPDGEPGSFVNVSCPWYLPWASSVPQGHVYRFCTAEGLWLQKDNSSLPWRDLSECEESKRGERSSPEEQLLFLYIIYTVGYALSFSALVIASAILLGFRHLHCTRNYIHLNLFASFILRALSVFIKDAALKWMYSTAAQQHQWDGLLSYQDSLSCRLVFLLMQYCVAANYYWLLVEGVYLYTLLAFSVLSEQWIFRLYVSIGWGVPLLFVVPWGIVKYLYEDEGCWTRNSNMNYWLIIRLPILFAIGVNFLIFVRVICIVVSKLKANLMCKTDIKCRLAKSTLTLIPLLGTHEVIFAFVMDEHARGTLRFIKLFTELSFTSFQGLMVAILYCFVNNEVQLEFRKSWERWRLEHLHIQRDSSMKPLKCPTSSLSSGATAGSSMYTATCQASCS

human glucagon receptor = human glucagon receptor (human, UniProt P47871); assay: cell-based or functional assay
[2] = 10 nmol/kg, somatostatin pretreatment 30 min prior to cpd

For `CCCCCCCCCCCCCCCCCC(=O)N[C@@H](CCC(=O)N[C@@H](CCC(=O)NCCOCCOCCC(=O)NCCOCCOCCC(=O)NCCCC[C@H](NC(=O)[C@H](CO)NC(=O)[C@H](CC(=O)O)NC(=O)[C@H](CC(C)C)NC(=O)[C@](C)(Cc1ccccc1)NC(=O)[C@H](CCCCN)NC(=O)[C@H](CO)NC(=O)[C@@H](NC(=O)[C@H](CC(=O)O)NC(=O)[C@H](CO)NC(=O)[C@@H](NC(=O)[C@](C)(Cc1ccccc1)NC(=O)[C@H](CO)NC(=O)CNC(=O)[C@H](CCC(N)=O)NC(=O)[C@H](CO)NC(=O)[C@@H](N)Cc1c[nH]cn1)[C@@H](C)O)C(C)C)C(=O)N[C@@H](C)C(=O)N[C@@H](C)C(=O)N[C@@H](CCC(N)=O)C(=O)N[C@@H](CC(=O)O)C(=O)N[C@@](C)(Cc1ccccc1)C(=O)N[C@H](C(=O)N[C@@H](CCC(N)=O)C(=O)NC(C)(C)C(=O)N[C@@H](CC(C)C)C(=O)N[C@@H](CCC(=O)O)C(=O)N[C@@H](C)C(=O)NCC(=O)NCC(N)=O)C(C)C)C(=O)O)C(=O)O` [Peptide 78] (H-HSQGS[αMeF]TSDVSK[αMeF]LDSK([PEG2-PEG2-γGlu-γGlu-Stearoyl])AAQD[αMeF]VQ[Aib]LEAGG-NH2; N-terminus assumed), the “% intact peptide over time, Neprilysin” value (neprilysin) was 100% and the “WT % glucose change 120 min” value (wildtype (WT) mice; 3 nmol/kg, no somatostatin pretreatment) was −42.0%.

With `CC(C)C[C@H](NC(=O)[C@H](Cc1c[nH]c2ccccc12)NC(=O)[C@H](CCCNC(=N)N)NC(=O)[C@@H](NC(=O)[C@H](Cc1ccccc1)NC(=O)[C@H](CC(=O)O)NC(=O)[C@H](CCC(N)=O)NC(=O)[C@H](C)NC(=O)[C@H](CCCNC(=N)N)NC(=O)[C@H](CCCCNC(=O)COCCOCCNC(=O)COCCOCCNC(=O)CC[C@H](NC(=O)CCCCCCCCCCCCCCCCC(=O)O)C(=O)O)NC(=O)[C@@H](NC(=O)[C@H](CC(=O)O)NC(=O)[C@H](CC(C)C)NC(=O)[C@](C)(Cc1ccccc1)NC(=O)[C@H](CCCCN)NC(=O)[C@H](CO)NC(=O)[C@@H](NC(=O)[C@H](CC(=O)O)NC(=O)[C@H](CO)NC(=O)[C@@H](NC(=O)[C@H](Cc1ccccc1)NC(=O)[C@@H](NC(=O)CNC(=O)[C@H](CCC(N)=O)NC(=O)C(C)(C)NC(=O)[C@@H](N)Cc1c[nH]cn1)[C@@H](C)O)[C@@H](C)O)C(C)C)[C@@H](C)O)C(C)C)C(=O)N[C@@H](CC(C)C)C(=O)N[C@@H](CCC(=O)O)C(=O)NC(C)(C)C(=O)NCC(=O)O` [Peptide 140] (H-H[Aib]QGTFTSDVSK[αMeF]LDTK([AEEA-AEEA-γGlu-C18 diacid])RAQDFVRWLLE[Aib]G-OH; N-terminus assumed) the “WT % glucose change 60 min” value (wildtype (WT) mice; 30 nmol/kg, no somatostatin pretreatment) was −29.0%.

`CC[C@H](C)[C@H](NC(=O)[C@H](Cc1c[nH]c2ccccc12)NC(=O)[C@H](CCCCNC(=O)COCCOCCNC(=O)COCCOCCNC(=O)CC[C@H](NC(=O)CCCCCCCCCCCCCCCCC(=O)O)C(=O)O)NC(=O)[C@@H](NC(=O)[C@H](Cc1ccccc1)NC(=O)[C@H](CC(=O)O)NC(=O)[C@H](CCC(N)=O)NC(=O)[C@H](C)NC(=O)[C@H](C)NC(=O)[C@H](CCCNC(=N)N)NC(=O)[C@H](CO)NC(=O)[C@H](CC(=O)O)NC(=O)[C@H](CC(C)C)NC(=O)[C@](C)(Cc1ccccc1)NC(=O)[C@H](CCCCN)NC(=O)[C@H](CO)NC(=O)[C@@H](NC(=O)[C@H](CC(=O)O)NC(=O)[C@H](CO)NC(=O)[C@@H](NC(=O)[C@](C)(Cc1ccccc1)NC(=O)[C@H](CO)NC(=O)CNC(=O)[C@H](Cc1c[nH]cn1)NC(=O)C(C)(C)NC(=O)[C@@H](N)Cc1c[nH]cn1)[C@@H](C)O)C(C)C)C(C)C)C(=O)N[C@@H](C)C(=O)N[C@@H](CC(N)=O)C(=O)N[C@H](C(N)=O)[C@@H](C)O` [Peptide 361] (H-H[Aib]HGS[αMeF]TSDVSK[αMeF]LDSRAAQDFVK([AEEA-AEEA-γGlu-C18 diacid])WIANT-NH2) was tested, and the “% Relative Potency Ratio” value [1] was 1.3 and the “WT % glucose change 120 min” value (wildtype (WT) mice; [2]) was −23.0%.

`CCCCCCCCCCCCCCCCCC(=O)N[C@@H](CCC(=O)N[C@@H](CCC(=O)NCCOCCOCCC(=O)NCCOCCOCCC(=O)NCCCC[C@H](NC(=O)[C@H](CO)NC(=O)[C@H](CC(=O)O)NC(=O)[C@H](CC(C)C)NC(=O)[C@@H](NC(=O)[C@H](CCCCN)NC(=O)[C@H](CO)NC(=O)[C@@H](NC(=O)[C@H](CC(=O)O)NC(=O)[C@H](CO)NC(=O)[C@@H](NC(=O)[C@](C)(Cc1ccccc1)NC(=O)[C@H](CO)NC(=O)CNC(=O)[C@H](CCC(N)=O)NC(=O)[C@H](CO)NC(=O)[C@@H](N)Cc1c[nH]cn1)[C@@H](C)O)C(C)C)C(c1ccccc1)c1ccccc1)C(=O)N[C@@H](C)C(=O)N[C@@H](C)C(=O)N[C@@H](CCC(N)=O)C(=O)N[C@@H](CC(=O)O)C(=O)N[C@@](C)(Cc1ccccc1)C(=O)N[C@H](C(=O)N[C@@H](CCC(=O)O)C(=O)NC(C)(C)C(=O)N[C@H](C(=O)N[C@@H](C)C(=O)N[C@@H](CC(N)=O)C(=O)N[C@H](C(N)=O)[C@@H](C)O)[C@@H](C)CC)C(C)C)C(=O)O)C(=O)O` [Peptide 49] (H-HSQGS[αMeF]TSDVSK[Dip]LDSK([PEG2-PEG2-γGlu-γGlu-Stearoyl])AAQD[αMeF]VE[Aib]IANT-NH2; N-terminus assumed) was tested, and the “WT % glucose change 120 min” value (wildtype (WT) mice; [2]) was −1.2%.

In the case of H[Aib]HGS[αMeF]TSDVSK[αMeF]LDSRAAQDFVK([AEEA-AEEA-γGlu-C20 diacid])WIANT-NH2 (not fully specified) [Peptide 367], the “hGluc-R EC50 (pM)” value (human glucagon receptor) is reported as 72.4 pM.

B1: Peptide 362 (peptide)
peptide: H[Aib]HGS[αMeF]TSDVSK[αMeF]LDSRAAQDFVK([AEEA-AEEA-γGlu-γGlu-C18 diacid])WIANT-NH2
modifications: N-terminus assumed
SMILES: CC[C@H](C)[C@H](NC(=O)[C@H](Cc1c[nH]c2ccccc12)NC(=O)[C@H](CCCCNC(=O)COCCOCCNC(=O)COCCOCCNC(=O)CC[C@H](NC(=O)CC[C@H](NC(=O)CCCCCCCCCCCCCCCCC(=O)O)C(=O)O)C(=O)O)NC(=O)[C@@H](NC(=O)[C@H](Cc1ccccc1)NC(=O)[C@H](CC(=O)O)NC(=O)[C@H](CCC(N)=O)NC(=O)[C@H](C)NC(=O)[C@H](C)NC(=O)[C@H](CCCNC(=N)N)NC(=O)[C@H](CO)NC(=O)[C@H](CC(=O)O)NC(=O)[C@H](CC(C)C)NC(=O)[C@](C)(Cc1ccccc1)NC(=O)[C@H](CCCCN)NC(=O)[C@H](CO)NC(=O)[C@@H](NC(=O)[C@H](CC(=O)O)NC(=O)[C@H](CO)NC(=O)[C@@H](NC(=O)[C@](C)(Cc1ccccc1)NC(=O)[C@H](CO)NC(=O)CNC(=O)[C@H](Cc1c[nH]cn1)NC(=O)C(C)(C)NC(=O)[C@@H](N)Cc1c[nH]cn1)[C@@H](C)O)C(C)C)C(C)C)C(=O)N[C@@H](C)C(=O)N[C@@H](CC(N)=O)C(=O)N[C@H](C(N)=O)[C@@H](C)O
In the case of B1, the “hGluc-R EC50 (pM)” value (human glucagon receptor) is reported as 42.8 pM.
